Assay: recombinant barcode read abundance after kanamycin selection (control-corrected) (log10(CPM+1)); higher = more efficient recombination; sequences stand for … in AGTGCAGAGAAAATCGGCCAGTTTTCTCTGCCTGCAGTCCGCATGCCGT…AGATTTATGCAGCGGACTGCCTTTCTCCCAAAGTGATAAACCGGACAGTATCATGGACCGGTTTTCCCGGTAATCCGTATTTGCAAGGTTGGTTTCACT; site = the 11-nt target
Summary of the method: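 IS621 bridge RNA target-binding loops were paired with targets in a pooled library tested in E. coli. After co-electroporation with a donor plasmid, cells were plated in two replicates on chloramphenicol/ampicillin LB agar (control) and on chloramphenicol/ampicillin/kanamycin carrying 0.1 mM IPTG. Barcodes at recombinant junctions were counted as counts per million, averaged and control-corrected to give recombination efficiency. Values are log10(CPM+1).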
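Also: IS621 recombinase and bridge RNA in Escherichia coli cells.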

Row | Sequence | recombinant barcode read abundance (log10)
1 | CTCCGCCCTTGGGTTCTAACCTGTTGCCT (site CTCCGTCCTAC) | 0.0714
2 | CTCCGGGCTTGGGTTCTAACCTGTTGCAG (site CTCCGGGCTCT) | 1.81
3 | CTCCGGGCTTGGGTTCTAACCTGTTGCAG (site TATACACCTAC) | 0.0879
4 | CTCCGGTCTTGGGTTCTAACCTGTTGCTT (site CACGGGTCTAA) | 0.22
5 | CTCCGGTCTTGGGTTCTAACCTGTTGCTT (site CTCCGGTCTAA) | 1.77
6 | CTCCGTACTTGGGTTCTAACCTGTTGCAT (site CTCCGAACTAA) | 0.0945
7 | CTCCGTACTTGGGTTCTAACCTGTTGCAT (site CTCCGTACTAT) | 1.14
8 | CTCCGTCCTTGGGTTCTAACCTGTTGCCG (site CTCCGTCCTCG) | 1.25
9 | CTCCGTCCTTGGGTTCTAACCTGTTGCCG (site GCCCGTCCTCG) | 0.272
10 | CTCCGTCCTTGGGTTCTAACCTGTTGCCT (site CTCCGTCCTAG) | 1.5
11 | CTCCGTCCTTGGGTTCTAACCTGTTGCCT (site CTGCGTCCTAG) | 0.252
12 | CTCCGTCCTTGGGTTCTAACCTGTTGCTT (site CTCCGACCTAA) | 0.106
13 | CTCCGTCCTTGGGTTCTAACCTGTTGCTT (site CTCCGCCCTAA) | 0.111
14 | CTCCGTCCTTGGGTTCTAACCTGTTGCTT (site CTCCGGCCTAA) | 0.589
15 | CTCCGTCCTTGGGTTCTAACCTGTTGCTT (site CTCCGTCCTAA) | 0.445
16 | CTCCTATCTTGGGTTCTAACCTGTTGCCT (site CTCCAATCTAG) | 0.238
17 | CTCCTATCTTGGGTTCTAACCTGTTGCCT (site CTCCTATCTAG) | 0.848
18 | CTCGAATCTTGGGTTCTAACCTGTTGCTA (site CTCGAACCTCA) | 0.175
19 | CTCGAATCTTGGGTTCTAACCTGTTGCTA (site CTCGAATCTTA) | 1.17
20 | CTCGACCCTTGGGTTCTAACCTGTTGCCT (site CTCGACCCTAG) | 1.7
21 | CTCGACCCTTGGGTTCTAACCTGTTGCCT (site CTGGATCCTAG) | 0.0491
22 | CTCGATACTTGGGTTCTAACCTGTTGCTT (site CTCGATACTAA) | 0.684

Row | Sequence | recombinant barcode read abundance (log10)
23 | CTCGATACTTGGGTTCTAACCTGTTGCTT (site CTCGCTACTAA) | 0.096
24 | CTCGCCACTTGGGTTCTAACCTGTTGCCT (site CTCGCCACTAG) | 0.186
25 | CTCGCCACTTGGGTTCTAACCTGTTGCCT (site GAGTTGTCTCC) | 0.0691
26 | CTCGGAGCTTGGGTTCTAACCTGTTGCCG (site CTCGGAGCTCG) | 0.596
27 | CTCGGAGCTTGGGTTCTAACCTGTTGCCG (site CTCGGATCTTG) | 0.47
28 | CTCGGATCTTGGGTTCTAACCTGTTGCCA (site CTCGGAGCTCG) | 0.167
29 | CTCGGATCTTGGGTTCTAACCTGTTGCCA (site CTCGGATCTTG) | 0.0484
30 | CTCGGTACTTGGGTTCTAACCTGTTGCCA (site CTCGGTACTTG) | 0.489
31 | CTCGGTACTTGGGTTCTAACCTGTTGCCA (site CTCGGTTCTAG) | 0.0612
32 | CTCGGTGCTTGGGTTCTAACCTGTTGCCT (site CACGGTCCTAG) | 0.118
33 | CTCGGTGCTTGGGTTCTAACCTGTTGCCT (site CTCGGTGCTAG) | 1.15
34 | CTCGTGTCTTGGGTTCTAACCTGTTGCAG (site CTCGTGTCTCT) | 1.95
35 | CTCGTGTCTTGGGTTCTAACCTGTTGCAG (site CTCTTGTCTCA) | 0.0182
36 | CTCGTGTCTTGGGTTCTAACCTGTTGCAT (site AGAACTACTTG) | 0.00883
37 | CTCGTGTCTTGGGTTCTAACCTGTTGCAT (site CTCGTGTCTAT) | 2.88
38 | CTCTACACTTGGGTTCTAACCTGTTGCCA (site CTCTAAACTTG) | 0.0347
39 | CTCTACACTTGGGTTCTAACCTGTTGCCA (site CTCTACACTTG) | 0.879
40 | CTCTACACTTGGGTTCTAACCTGTTGCCA (site CTCTAGACTTG) | 0.161
41 | CTCTACACTTGGGTTCTAACCTGTTGCCA (site CTCTATACTTG) | 0.0697
42 | CTCTACCCTTGGGTTCTAACCTGTTGCAG (site AGAGCGACTTA) | 0.0772
43 | CTCTACCCTTGGGTTCTAACCTGTTGCAG (site CTCTACCCTCT) | 1.9

From the supplement of paper PMC11208160
